In patent US4299970A, “Oxy-alkylamino carboxylic esters” (Beecham Group Limited, priority 1974, dated 1981):
Converted amounts (≈) assume the structure as drawn. Like-named read-outs stand apart in the source and are kept apart here. Blank lines part the entries; values can stand above or below the compound they belong to.

Tests used:
[1] = tested on: guinea pig platelet aggregation induced by ADP; assay: inhibition of guinea pig platelet aggregation induced in vitro by ADP; type: cell-based; conditions: Cavia porcellus, ADP 5.45×10^-7 M, platelet rich plasma, 37° C.
Description: a. The compounds were examined for their ability to inhibit guinea pig platelet aggregation induced, in vitro, by 5.45×10^-7 M adenosine diphosphate (ADP).
The method consisted of diluting the compound immediately before use from a 10 mg/ml solution in ethanol to a 1 mg/ml solution with saline and then adding the appropriate volume to 0.5 ml of platelet rich plasma. The mixture was stirred at 37° C. for 1 minute before 25 μl of an ADP solution was added to give a final ADP concentration of 5.45×10^-7 M. The aggregation response was then recorded relative to the control.

[2] = tested on: 5-hydroxy-tryptamine-induced bronchoconstriction; assay: inhibition of 5-hydroxytryptamine-induced bronchoconstriction (Konsett-Rossler preparation); type: in vivo, guinea pig; conditions: Cavia porcellus; intravenous, 2 minutes prior to 5-hydroxytryptamine dose
Description: a. The compounds were examined for their ability to inhibit 5-hydroxy-tryptamine-induced bronchoconstriction in the anaesthetised, artifically respired guinea pig (Konsett-Rossler preparation).
H. Konsett and R. Rossler, (1940), Naunyn-Schneidebergs Arch. Exp. Path. Pharmak., 195, 71.
After preparation of the guinea pig, a dose of 5-hydroxytryptamine producing an adequate response was determined by dosing, i.v., every 6 minutes. This dose was usually 10 μg. After a standard response was obtained, compounds were given intra-venously 2 minutes prior to the next standard dose and dosing of 5-hydroxytryptamine was continued every 6 minutes until the response returned to control values.

[3] = tested on: pentagastrin-stimulated gastric acid secretion; assay: inhibition of pentagastrin-stimulated gastric acid secretion, anaesthetised perfused rat stomach (Ghosh and Schild preparation); type: in vivo; conditions: intravenous
Source text: a. The compounds were examined for their ability to inhibit pentagastrin-stimulated gastric acid secretion in the anaesthetised, perfused rat stomach preparation (Ghosh and Schild preparation).
M. N. Ghosh and H. O. Schild, (1958), Brit. J. Pharmacol, 13, 54.
The compounds were given intravenously.

arterial blood pressure = assay: effect on arterial blood pressure in the anaesthetised, normotensive rat; type: in vivo; conditions: intravenous, dose range 0.001 → 1.0 mg/kg
Description: a. The effect of the compounds on arterial blood pressure was determined in the anaesthetised, normotensive rat. The rat preparation was similar to that desribed in "Pharmacological experiments on intact preparations", E. and S. Livingstone, Edinburgh and London, 1970, p. 63.
The active compounds were predominantly depressor agents in the normotensive rat.

[4] = tested on: indomethacin-induced ulcer; assay: indomethacin-induced ulcer test in fasted rats; type: in vivo, rat; conditions: 20 mg/kg, s.c., twice; 5 hour test; indomethacin 50 mg/kg, i.p.
Description: d. Anti-ulcer activity was determined in a 5 hour indomethacin-induced (50 mg/kg, i.p.) ulcer test in fasted rats. Compound 63 inhibited ulceration by 71% when given at 20 mg/kg, s.c., twice during the course of the test.

[5] = tested on: femoral artery of the hind limb; assay: vasodilator activity in femoral artery of the hind limb (vascular resistance); type: in vivo, beagle dog; conditions: dose range of 0.01-1 mg/kg, intra-arterially
Description: (§1) b. The vasodilator activity of the compounds was determined in the femoral artery of the hind limb of the anaesthetised beagle dog. The method used was similar to that described by J. Nakano and J. R. McCurdy, (1967), J. Pharmac. Exp. Ther., 156, 538.
The compounds were administered into the iliac artery and the effects on both flow and pressure in the hind limb were recorded. Changes in vascular resistance (R) were calculated from the following expression: [formula]

gastric acid secretion = assay: inhibition of gastric acid secretion in the pyloric ligated rat (Shay rat preparation); type: in vivo; conditions: for ED50: sc
Source text: b. The compounds were examined for their ability to inhibit gastric acid secretion in the pyloric ligated rat model (Shay rat preparation).
H. Shay, S. A. Komarov, S. S. Fels, D. Merance, M. Gruenstein and H. Siplet, (1945), Gastroenerology, 5, 43.

[6] = tested on: histamine-induced asphyxic collapse; assay: protection against aerosol administered, histamine-induced asphyxic collapse; type: in vivo, guinea pig
Source text: b. The compounds were examined for their ability to protect against aerosol administered, histamine-induced asphyxic collapse in guinea pigs.
M. A. Wasserman and R. L. Griffen, (1975), Am. Rev. Resp. Dis., 111, 946.

[7] = tested on: gastric acid secretion, stimulated by pentagastrin infusion; assay: inhibition of pentagastrin-stimulated gastric acid secretion, chronic fistula rat preparation; type: in vivo; conditions: 2-5 mg/kg, s.c.
Source text: c. The compounds were examined for their ability to inhibit gastric acid secretion, stimulated by pentagastrin infusion, in the chronic fistula rat preparation.
P. H. Guth and R. Mendick, (1965), Amer. J. Gastroenterology, 44, 545.

[8] = tested on: total peripheral resistance; assay: total peripheral resistance, intravenous; type: in vivo, beagle dog; conditions: dose range of 0.01-10 mg/kg, intra-venously
Description: as §1
In other experiments the compounds were administered into the left femoral vein and the right femoral arterial pressure and cardiac output were monitored. From these experiments, total peripheral resistance (TPR) was calculated from the expression: [formula]

gerbil colon = assay: prostaglandin-like activity on the isolated perfused gerbil colon; conditions: De Jalon's saline, 32° C.
Description: (§2) The compounds were tested for prostaglandin-like and for prostaglandin antagonist activity on the isolated perfused gerbil colon preparation (smooth muscle). This has been shown by J. R. Weeks, J. R. Schultz and W. E. Brown, (1968), J. App. Physiol, 25, 783, to have greater precision and sensitivity than other preparations. A 15 mm portion of the descending colon is suspended in an organ bath and perfused with De Jalon's saline at 32° C. Compounds were given in a three minute cycle with a 45 second contact time and a 15 second washout time. Antagonist compounds were given with a one minute pre-contact time.
Prostaglandin-like activity was determined using the method of H. O. Schlid, (1942), J. Physiol., 101, 115, which is a standard 4×4 latin square assay. Some of the compounds stimulated the gerbil colon to contract which is a prostaglandin-like effect, and the results are shown in Table 15.

[9] = tested on: human platelet aggregation induced by collagen; assay: inhibition of human platelet aggregation induced in vitro by collagen; type: cell-based; conditions: 10^-4 M, collagen, platelet rich plasma, 37° C.
Description: b. The compounds were examined for their ability to inhibit human platelet aggregation induced, in vitro, either by adenosine diphosphate (ADP) or collagen. The compounds were added in saline or dimethylformamide to platelet rich plasma at 37° C. to give a final concentration of 10^-4 M. After 3 minutes the platelets were challenged with ADP or collagen. The aggregation response was then recorded relative to the control.

[10] = tested on: gerbil colon; contraction to prostaglandin F2α; assay: prostaglandin antagonist activity on the isolated perfused gerbil colon (contraction to prostaglandin F2α); conditions: Meriones unguiculatus; reduction of contraction to prostaglandin F2α; one minute pre-contact time
Description: as §2
Antagonist activity was determined by measuring the percentage reduction of the contraction to two standard doses of prostaglandin F2α which gave responses between 20% and 80% of maximum response.

antifertility activity = antifertility activity in female mice; type: in vivo; conditions: 50-100 mg/kg, s.c.; 5 days pre-coitally and 10 days post-coitally
Description: Antifertility activity was determined by subcutaneous dosing of female mice for 5 days pre-coitally and 10 days post-coitally. Three female mice per group were used and these were mated with males of proven fertility and mating confirmed by examination for copulation plugs.

[11] = subcutaneously twice, 3 hour Shay rat preparation

Structure (SMILES): CCCCCCC(C)(O)CCN1C(=O)CCC(=O)C1CCCCCCC(=O)OCC (stereo not shown) [Compound 56]
IC50 [1]: 51 µM

Structure (SMILES): CCCCCCCC(C)(O)CCN1C(=O)CCC(=O)C1CCCCCCC(=O)OCC (stereo not shown) [Compound 57, 2-(6'-Ethoxycarbonyl-n-hexyl)-1-(3"-hydroxy-3"-methyl-n-decyl)-piperidin-3,6-dione]
ED50 [2]: 0.253 mg/kg

Structure (SMILES): CCCCCC(C)C(C)(O)CCN1C(=O)CCC(=O)C1CCCCCCC(=O)OCC (stereo not shown) [Compound 60]
IC50 [1]: 11 µM
ED50 [3]: 1 mg/kg

Structure (SMILES): CCCCCC(C)(O)CCN1C(=O)CC(=O)C1CCCCCCC(=O)OCC (stereo not shown) [Compound 62, 2-(6'-Ethoxycarbonyl-n-hexyl)-1-(3"-hydroxy-3"-methyl-n-octyl)-pyrrolidin-3,5-dione]
ED50 [2]: 0.088 mg/kg
% Depression at 1 mg/kg (arterial blood pressure): 70%
IC50 [1]: 20 µM
ED50 [3]: 0.72 mg/kg

Structure (SMILES): CCCCCCC(C)(O)CCN1C(=O)CC(=O)C1CCCCCCC(=O)OCC (stereo not shown) [Compound 63, 2-(6'-Ethoxycarbonyl-n-hexyl)-1-(3"-hydroxy-3"-methyl-n-nonyl)-pyrrolidin-3,5-dione]
ED50 [2]: 0.008 mg/kg
inhibition of ulceration [4]: 71%
vascular resistance [5]: decreased vascular resistance
% Depression at 1 mg/kg (arterial blood pressure): 60%
IC50 [1]: 1.3 µM
activity when given intraduodenally (gastric acid secretion; intraduodenally, Shay rat preparation): active
ED50 (gastric acid secretion; subcutaneously once, 3 hour Shay rat preparation, at the time of ligation, read-out: ED50, given once): 5.3 mg/kg
ED50 (gastric acid secretion; subcutaneously twice, 3 hour Shay rat preparation, at time of ligation and 1.5 hours after, read-out: ED50, given twice): 2.25 mg/kg
H^+ concentration (gastric acid secretion; [11]): decreasing the H^+ concentration
total titratable acidity in the stomach (gastric acid secretion; [11]): lowered the total titratable acidity in the stomach
volume of secretion (gastric acid secretion; [11]): inhibiting the volume of secretion
protecting against histamine challenge [6]: very effective
inhibiting acid secretion [7]: very effective
total peripheral resistance (TPR) [8]: decreased total peripheral resistance
ED50 [3]: 0.09 mg/kg

Structure (SMILES): CCCCCCCC(C)(O)CCN1C(=O)CC(=O)C1CCCCCCC(=O)OCC (stereo not shown) [Compound 64, 2-(6'-Ethoxycarbonyl-n-hexyl)-1-(3"-hydroxy-3"-methyl-n-decyl)-pyrrolidin-3,5-dione]
ED50 [2]: 0.011 mg/kg
IC50 [1]: 9 µM
protecting against histamine challenge [6]: very effective

Structure (SMILES): CCOC(=O)CCCCCCC1C(=O)CCC(=O)N1CCCO (stereo not shown) [Compound 74]
Concentration/ml. for contractions (gerbil colon): 4 to 8 µg/mL

Structure (SMILES): CCCCCC(O)CCN1C(=O)CC(=O)C1CCCCCCC(=O)OCC (stereo not shown) [Compound 75, 2-(6'-ethoxycarbonyl-n-hexyl)-1-(3"-hydroxy-n-octyl)-pyrrolidin-3,5-dione]
Concentration/ml. for contractions (gerbil colon): 0.2 to 0.5 µg/mL
inhibition at 100 µM [9]: 61%

Structure (SMILES): CCCCCCC(O)CCN1C(=O)CCC(=O)C1CCCCCCC(=O)OCC (stereo not shown) [Compound 78]
% Depression at 1 mg/kg (arterial blood pressure): 30%
inhibition at 100 µM [9]: 65%

Structure (SMILES): CCCCCC(O)CCN1CCCC(O)C1CCCCCCCO (stereo not shown) [Compound 100]
Concentration/ml. for contractions (gerbil colon): 0.01 to 0.02 µg/mL

Structure (SMILES): CCCCCC(CCN1CCC(O)C1CCCCCCCO)OCc1ccccc1 (stereo not shown) [Compound 101]
Concentration/ml. for contractions (gerbil colon): 0.04 to 0.10 µg/mL

Structure (SMILES): CCCCCC(O)CCN1CCC(O)C1CCCCCCCO (stereo not shown) [Compound 102]
Concentration/ml. for contractions (gerbil colon): 0.04 to 0.10 µg/mL
inhibition at 100 µM [9]: 71%

Structure (SMILES): CCCCCCC(O)CCN1CCCC(O)C1CCCCCCCO (stereo not shown) [Compound 105]
% Depression at 1 mg/kg (arterial blood pressure): 20%
inhibition at 100 µM [9]: 78%

Structure (SMILES): CCCCCCC(O)CCN1CCC(O)C1CCCCCCCO (stereo not shown) [Compound 108]
antifertility activity (antifertility activity): active

Structure (SMILES): CCCCCCCCN1CCCC(O)C1CCCCCCC (stereo not shown) [Compound 112, 2-n-heptyl-3-hydroxy-1-n-octyl-piperidine]
antifertility activity (antifertility activity): active
vascular resistance [5]: decreased vascular resistance
total peripheral resistance (TPR) [8]: decreased total peripheral resistance
inhibition at 100 µM [9]: 77%

Now from value to compound, other results behind:

IC50 [1]: 4 µM
Structure (SMILES): CCCCCCC(O)(CC)CCN1C(=O)CC(=O)C1CCCCCCC(=O)OCC (stereo not shown) [Compound 68, 2-(6'-Ethoxycarbonyl-n-hexyl)-1-(3"-hydroxy-3"-ethyl-n-nonyl)-pyrrolidin-3,5-dione]

IC50 [1]: 147 µM
Structure (SMILES): CCCCCC(O)CCN1C(=O)CC(O)C1CCCCCCC(=O)OCC (stereo not shown) [Compound 76, 2-(6'-ethoxycarbonyl-n-hexyl)-3-hydroxy-1-(3"-hydroxy-n-octyl)-pyrrolidin5-one]
inhibition at 100 µM [9]: 79%

IC50 [1]: 5.4 µM
Structure (SMILES): CCCCCCC(O)CCN1C(=O)CC(=O)C1CCCCCCC(=O)OCC (stereo not shown) [Compound 77, 2-(6'-ethoxycarbonyl-n-hexyl)-1-(3"-hydroxyn-nonyl)-pyrrolidin-3,5-dione]
ED50 [2]: 0.38 mg/kg
% Depression at 1 mg/kg (arterial blood pressure): 30%
ED50 [3]: 2.6 mg/kg

IC50 [10]: 0.76 µg/mL (≈ 1.55 µM)
Structure (SMILES): CCCCCC(CCN1C(=O)CCC(O)C1CCCCCCC(=O)OCC)OCc1ccccc1 (stereo not shown) [Compound 79]

IC50 [10]: 3.1 µg/mL (≈ 7.39 µM)
Structure (SMILES): CCOC(=O)CCCCCCC1C(O)CCC(=O)N1CCCOCc1ccccc1 (stereo not shown) [Compound 80]

IC50 [10]: 0.17 µg/mL (≈ 0.357 µM)
Structure (SMILES): CCCCCC(CCN1C(=O)CC(O)C1CCCCCCC(=O)OCC)OCc1ccccc1 (stereo not shown) [Compound 81]

IC50 [1]: 55 µM
Structure (SMILES): CCCCCCC(C)(O)CCN1C(=O)CC(O)C1CCCCCCC(=O)OCC (stereo not shown) [Compound 86]
ED50 [2]: 0.505 mg/kg

IC50 [10]: 2.15 µg/mL (≈ 5.38 µM)
Structure (SMILES): CCCCCCC(O)CCN1C(=O)CC(O)C1CCCCCCC(=O)OCC (stereo not shown) [Compound 98]

IC50 [10]: 1.55 µg/mL (≈ 4.76 µM)
Structure (SMILES): CCCCCCCCN1C(=O)CCC(O)C1CCCCCCC (stereo not shown) [Compound 99, 2-n-Heptyl-3-hydroxy-1-n-octyl-piperidin-6-one]

IC50 [10]: 0.35 µg/mL (≈ 0.963 µM)
Structure (SMILES): OCCCCCCCC1C(O)CCCN1CCCOCc1ccccc1 (stereo not shown) [Compound 103]

IC50 [10]: 0.11 µg/mL (≈ 0.254 µM)
Structure (SMILES): CCCCCC(CCN1CCCC(O)C1CCCCCCCO)OCc1ccccc1 (stereo not shown) [Compound 104, 1-(3'-Benzyloxy-n-octyl)-3-hydroxy-2-(7"-hydroxy-n-heptyl)piperidine]
